What all share (type): cell-based
In assay [1] the target is T1, Myostatin (Homo sapiens, UniProt O14793).
T1 construct: active myostatin (also called mature myostatin) is a homodimer consisting of two C-terminal growth factor domains; purchased R&D systems 788-G8/CF
T1 sequence (O14793 267-375): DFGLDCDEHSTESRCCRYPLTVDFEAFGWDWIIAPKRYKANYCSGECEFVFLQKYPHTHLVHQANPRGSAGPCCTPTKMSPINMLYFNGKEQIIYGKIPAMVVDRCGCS
Kind of assay: Reporter gene assay for myostatin signaling in HepG2 cell line, Evaluation Procedure (1), myostatin inhibition. As to conditions: Method A: Myostatin 10 ng/mL; read-out: IC50 (Luciferase) Myostatin HepG2. In short, it runs like this: (§1)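 IC50 derived from One-Glo luciferase luminescence after 20–24 h at 37 °C. Peptides titrated 4-fold at 0.006–100 nmol/L against myostatin or 0.12–2000 nmol/L against GDF-11 in HepG2 cells carrying a transfected CAGA12-luciferase reporter, kept in 0.1% BSA EMEM.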

Assay [2] relates to Myostatin. The assay is described as above. As to conditions: Method A; GDF-11 IC50 versus Myostatin IC50. In short, it runs like this:
as §1

A further assay concerns the target T2, GDF-11 (Homo sapiens, UniProt O95390).
T2 construct: purchased R&D systems 1958-GD-G8/CF
T2 sequence (O95390 299-407): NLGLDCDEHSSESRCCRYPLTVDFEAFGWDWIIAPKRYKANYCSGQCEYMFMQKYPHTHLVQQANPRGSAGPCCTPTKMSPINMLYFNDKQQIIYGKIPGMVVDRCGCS
Kind of assay: Reporter gene assay for myostatin signaling in HepG2 cell line, Evaluation Procedure (1), GDF-11 inhibition. The settings on record: Method A: GDF-11 10 ng/mL; read-out: IC50 (Luciferase) GDF-11 HepG2. In outline:
as §1

Molecules are shown by their SMILES. Starred links: 1 amine or outer side, 2 acyl side, 3 side chain; linkers in the order of their positions; H or OH if unused. Positions of bridges follow the written chain, without caps; N, C: chain ends. Non-standard residues stand in square brackets, D forms with d. Residues, ends and D or L forms follow the SMILES beside them. *: point of attachment. Phe(4-(4-pyridyl)) = N[C@@H](Cc1ccc(-c2ccncc2)cc1)C(=O)O; Phe(3-OCH2COOH) = N[C@@H](Cc1cccc(OCC(=O)O)c1)C(=O)O; Phe(4-COOH) = N[C@@H](Cc1ccc(C(=O)O)cc1)C(=O)O; Trp(7-aza) = N[C@@H](Cc1c[nH]c2ncccc12)C(=O)O; Bip = N[C@@H](Cc1ccc(-c2ccccc2)cc1)C(=O)O; Gly(N(CH2)3COOH) = O=C(O)CCCNCC(=O)O; NMeY = CN[C@@H](Cc1ccc(O)cc1)C(=O)O; X1 = CCCCCCC[C@H](N[*:1])C(=O)[*:2]; Gly(cPent) = N[C@H](C(=O)O)C1CCCC1; NMeF = CN[C@@H](Cc1ccccc1)C(=O)O; Ahp(2) = CCCCC[C@H](N)C(=O)O; Carboxymethyl = O=C(O)C*; NMeA = CN[C@@H](C)C(=O)O; Sar = CNCC(=O)O

On to `CCCCC[C@@H]1NC(=O)[C@H](Cc2ccccc2)N(C)C(=O)[C@H](CCCNC(=N)N)NC(=O)[C@H](Cc2ccc(C(=O)O)cc2)NC(=O)[C@H](Cc2cccc(OCC(=O)O)c2)NC(=O)CN(C)C(=O)[C@H]([C@@H](C)CC)NC(=O)[C@H](Cc2ccc(O)cc2)N(C)C(=O)[C@H](Cc2ccc(O)cc2)NC(=O)[C@H](Cc2ccc(-c3ccccc3)cc2)NC(=O)[C@H](C)NC(=O)CN(CCCC(=O)O)C(=O)CSC[C@H](C(=O)O)NC(=O)[C@H](Cc2ccccc2)N(C)C(=O)[C@H](C)N(C)C1=O` [Myostatin_99_v116] ({CH2CO}-[Gly(N(CH2)3COOH)]A[Bip]Y[NMeY]I[Sar][Phe(3-OCH2COOH)][Phe(4-COOH)]R[NMeF][Ahp(2)][NMeA][NMeF][dC]-OH; thioether N-15), for which the figures for the IC50 on Myostatin [1] and at GDF-11 were 5.4 nM and 1960 nM, respectively. In addition, in the assay with Myostatin [2], the Selectivity was 364.

In the case of `CCCCCCC[C@@H]1NC(=O)[C@H](Cc2ccccc2)N(C)C(=O)[C@H](CCCNC(=N)N)NC(=O)[C@H](Cc2ccc(C(=O)O)cc2)NC(=O)[C@H](Cc2cccc(OCC(=O)O)c2)NC(=O)CN(C)C(=O)[C@H]([C@@H](C)CC)NC(=O)[C@H](Cc2ccc(O)cc2)N(C)C(=O)[C@H](Cc2ccc(O)cc2)NC(=O)[C@H](Cc2ccc(-c3ccccc3)cc2)NC(=O)[C@H](C)NC(=O)CN(CCCC(=O)O)C(=O)CSC[C@H](C(=O)O)NC(=O)[C@H](Cc2ccccc2)N(C)C(=O)[C@H](C)N(C)C1=O` [Myostatin_99_v117] ({CH2CO}-[Gly(N(CH2)3COOH)]A[Bip]Y[NMeY]I[Sar][Phe(3-OCH2COOH)][Phe(4-COOH)]R[NMeF][X1][NMeA][NMeF][dC]-OH; thioether N-15), the figures for the IC50 at Myostatin [1] and on GDF-11 were 1.7 nM and 713 nM, respectively. In addition, in the assay with Myostatin [2], the Selectivity stood at 419.

Consider `CC[C@H](C)[C@@H]1NC(=O)[C@H](Cc2ccccc2)N(C)C(=O)[C@H](Cc2ccc(O)cc2)NC(=O)[C@H](Cc2ccc(-c3ccncc3)cc2)NC(=O)[C@H](C)NC(=O)CN(CCCC(=O)O)C(=O)CSC[C@H](C(N)=O)NC(=O)[C@H](Cc2ccccc2)N(C)C(=O)[C@H](C)N(C)C(=O)[C@H](CC(C)C)NC(=O)[C@H](Cc2ccccc2)N(C)C(=O)[C@H](CCCNC(=N)N)NC(=O)[C@H](Cc2ccc(OCC(=O)O)cc2)NC(=O)[C@H](Cc2cccc(OCC(=O)O)c2)NC(=O)[C@H](C)N(C)C1=O` [Myostatin_99_v123] ({CH2CO}-[Gly(N(CH2)3COOH)]A[Phe(4-(4-pyridyl))]Y[NMeF]I[NMeA][Phe(3-OCH2COOH)]Y(Carboxymethyl)R[NMeF]L[NMeA][NMeF][dC]-NH2; thioether N-15), for which the figures for the IC50 at Myostatin [1] and on GDF-11 were 38.1 nM and 7390 nM, respectively. In the assay on Myostatin [2], this compound gave a Selectivity of 194.

On to `CC[C@H](C)[C@@H]1NC(=O)[C@H](Cc2ccccc2)N(C)C(=O)[C@H](Cc2ccc(O)cc2)NC(=O)[C@H](Cc2c[nH]c3ccccc23)NC(=O)[C@H](C)NC(=O)CN(CCCC(=O)O)C(=O)CSC[C@H](C(=O)O)NC(=O)[C@H](Cc2ccccc2)N(C)C(=O)[C@H](C)N(C)C(=O)[C@H](CC(C)C)NC(=O)[C@H](Cc2ccccc2)N(C)C(=O)[C@H](CCCNC(=N)N)NC(=O)[C@H](Cc2ccc(OCC(=O)O)cc2)NC(=O)[C@H](Cc2cccc(OCC(=O)O)c2)NC(=O)[C@H](C)N(C)C1=O` [Myostatin_99_v124] ({CH2CO}-[Gly(N(CH2)3COOH)]AWY[NMeF]I[NMeA][Phe(3-OCH2COOH)]Y(Carboxymethyl)R[NMeF]L[NMeA][NMeF][dC]-OH; thioether N-15), for which the figures for the 50% inhibitory concentration (IC50) on Myostatin [1] and on GDF-11 were 17.1 nM and 2270 nM, respectively. In addition, the Selectivity in the assay with Myostatin [2] is recorded as 133.

For `CC(C)C[C@@H]1NC(=O)[C@H](Cc2ccccc2)N(C)C(=O)[C@H](CCCNC(=N)N)NC(=O)[C@H](Cc2ccc(OCC(=O)O)cc2)NC(=O)[C@H](Cc2cccc(OCC(=O)O)c2)NC(=O)[C@H](C)N(C)C(=O)[C@H](C2CCCC2)NC(=O)[C@H](Cc2ccccc2)N(C)C(=O)[C@H](Cc2ccc(O)cc2)NC(=O)[C@H](Cc2ccc(-c3ccncc3)cc2)NC(=O)[C@H](C)NC(=O)CN(CCCC(=O)O)C(=O)CSC[C@H](C(=O)O)NC(=O)[C@H](Cc2ccccc2)N(C)C(=O)[C@H](C)N(C)C1=O` [Myostatin_99_v135] ({CH2CO}-[Gly(N(CH2)3COOH)]A[Phe(4-(4-pyridyl))]Y[NMeF][Gly(cPent)][NMeA][Phe(3-OCH2COOH)]Y(Carboxymethyl)R[NMeF]L[NMeA][NMeF][dC]-OH; thioether N-15), the IC50 on Myostatin [1] came out at 22.6 nM; on GDF-11, 3290 nM. For the same compound, in the assay with Myostatin [2], the Selectivity was found to be 145.

Regarding `CC[C@H](C)[C@@H]1NC(=O)[C@H](Cc2ccccc2)N(C)C(=O)[C@H](Cc2ccc(O)cc2)NC(=O)[C@H](Cc2c[nH]c3ccccc23)NC(=O)[C@H](C)NC(=O)CN(CCCC(=O)O)C(=O)CSC[C@H](C(=O)O)NC(=O)[C@H](Cc2ccccc2)N(C)C(=O)[C@H](C)N(C)C(=O)[C@H](CC(C)C)NC(=O)[C@H](Cc2ccccc2)N(C)C(=O)[C@H](CCCNC(=N)N)NC(=O)[C@H](Cc2ccc(C(=O)O)cc2)NC(=O)[C@H](Cc2cccc(OCC(=O)O)c2)NC(=O)[C@H](C)N(C)C1=O` [Myostatin_99_v144] ({CH2CO}-[Gly(N(CH2)3COOH)]AWY[NMeF]I[NMeA][Phe(3-OCH2COOH)][Phe(4-COOH)]R[NMeF]L[NMeA][NMeF][dC]-OH; thioether N-15), the IC50 turned out to be 16.3 nM on Myostatin [1] and 2760 nM on GDF-11. The compound also registered a Selectivity with Myostatin [2] of 169.

Regarding `CCCCCCC[C@@H]1NC(=O)[C@H](Cc2ccccc2)N(C)C(=O)[C@H](CCCNC(=N)N)NC(=O)[C@H](Cc2ccc(C(=O)O)cc2)NC(=O)[C@H](Cc2cccc(OCC(=O)O)c2)NC(=O)[C@H](C)N(C)C(=O)[C@H]([C@@H](C)CC)NC(=O)[C@H](Cc2ccccc2)N(C)C(=O)[C@H](Cc2ccc(O)cc2)NC(=O)[C@H](Cc2c[nH]c3ncccc23)NC(=O)[C@H](C)NC(=O)CN(CCCC(=O)O)C(=O)CSC[C@H](C(=O)O)NC(=O)[C@H](Cc2ccccc2)N(C)C(=O)[C@H](C)N(C)C1=O` [Myostatin_99_v148] ({CH2CO}-[Gly(N(CH2)3COOH)]A[Trp(7-aza)]Y[NMeF]I[NMeA][Phe(3-OCH2COOH)][Phe(4-COOH)]R[NMeF][X1][NMeA][NMeF][dC]-OH; thioether N-15), the IC50 worked out at 1.5 nM at Myostatin [1] and 439 nM on GDF-11. The compound further returned a Selectivity in the assay on Myostatin [2] of 293.

For `CCCCCCC[C@@H]1NC(=O)[C@H](Cc2ccccc2)N(C)C(=O)[C@H](CCCNC(=N)N)NC(=O)[C@H](Cc2ccc(OCC(=O)O)cc2)NC(=O)[C@H](Cc2cccc(OCC(=O)O)c2)NC(=O)[C@H](C)N(C)C(=O)[C@H]([C@@H](C)CC)NC(=O)[C@H](Cc2ccccc2)N(C)C(=O)[C@H](Cc2ccc(O)cc2)NC(=O)[C@H](Cc2c[nH]c3ccccc23)NC(=O)[C@H](C)NC(=O)CN(CCCC(=O)O)C(=O)CSC[C@H](C(=O)O)NC(=O)[C@H](Cc2ccccc2)N(C)C(=O)[C@H](C)N(C)C1=O` [Myostatin_99_v150] ({CH2CO}-[Gly(N(CH2)3COOH)]AWY[NMeF]I[NMeA][Phe(3-OCH2COOH)]Y(Carboxymethyl)R[NMeF][X1][NMeA][NMeF][dC]-OH; thioether N-15), the IC50 is 1.7 nM on Myostatin [1] and 395 nM on GDF-11. Also, in the assay on Myostatin [2], the Selectivity is 232.
